# ChEMBL document CHEMBL2176932, “De novo cyclic pseudopeptides containing aza-β3-amino acids exhibiting antimicrobial activities” (J Med Chem, 2012)
# What was measured:
# [1] = Toxicity in sheep RBC assessed as hemolytic activity at 100 uM after 1 hr; assay type: cell-based, Ovis aries, Erythrocyte; settings: sheep red blood cells, read-out: Activity
# [2] = Toxicity in sheep RBC assessed as hemolytic activity after 1 hr; assay type: cell-based, Ovis aries, Erythrocyte; settings: sheep red blood cells
# Aeromonas caviae = assay: Antibacterial activity against Aeromonas caviae ATCC 15648 after 48 hrs by microtiter broth dilution method; assay type: functional; settings: ATCC 15648, 48 h
# Klebsiella aerogenes = assay: Antibacterial activity against Enterobacter aerogenes ATCC 13048 after 48 hrs by microtiter broth dilution method; assay type: functional; settings: ATCC 13048, 48 h
# Klebsiella oxytoca = assay: Antibacterial activity against Klebsiella oxytoca CIP 7932 after 48 hrs by microtiter broth dilution method; assay type: functional; settings: CIP 7932, 48 h
# Pseudomonas aeruginosa = assay: Antibacterial activity against Pseudomonas aeruginosa ATCC 27853 after 48 hrs by microtiter broth dilution method; assay type: functional; settings: ATCC 27853, 48 h
# Salmonella enterica = assay: Antibacterial activity against Salmonella enterica ATCC 13076 after 48 hrs by microtiter broth dilution method; assay type: functional; settings: ATCC 13076, 48 h
# Escherichia coli = assay: Antibacterial activity against Escherichia coli ATCC 25922 after 48 hrs by microtiter broth dilution method; assay type: functional; settings: ATCC 25922, 48 h
# Listeria monocytogenes = assay: Antibacterial activity against Listeria monocytogenes SOR 100 after 48 hrs by microtiter broth dilution method; assay type: functional; settings: SOR 100, 48 h
# Staphylococcus aureus = assay: Antibacterial activity against Staphylococcus aureus ATCC 25923 after 48 hrs by microtiter broth dilution method; assay type: functional; settings: ATCC 25923, 48 h
# Lactococcus garvieae = assay: Antibacterial activity against Lactococcus garvieae ATCC 43921 after 48 hrs by microtiter broth dilution method; assay type: functional; settings: ATCC 43921, 48 h
# Micrococcus luteus = assay: Antibacterial activity against Micrococcus luteus ATCC 10240 after 48 hrs by microtiter broth dilution method; assay type: functional; settings: ATCC 10240, 48 h
# Streptococcus equinus = assay: Antibacterial activity against Streptococcus equinus ATCC 5623 after 48 hrs by microtiter broth dilution method; assay type: functional; settings: ATCC 5623, 48 h
# Enterococcus faecalis = assay: Antibacterial activity against Enterococcus faecalis CIP 186 after 48 hrs by microtiter broth dilution method; assay type: functional; settings: CIP 186, 48 h
# Priestia megaterium = assay: Antibacterial activity against Bacillus megaterium ATCC 10778 after 48 hrs by microtiter broth dilution method; assay type: functional; settings: ATCC 10778, 48 h
# [3] = Selectivity ratio of MHC for sheep RBC to MIC for Escherichia coli ATCC 25922; assay type: functional
# [4] = Selectivity ratio of MHC for sheep RBC to MIC for Staphylococcus aureus ATCC 25923; assay type: functional
# [5] = Selectivity ratio of HC50 for sheep RBC to MIC for Escherichia coli ATCC 25922; assay type: functional
# [6] = Selectivity ratio of HC50 for sheep RBC to MIC for Staphylococcus aureus ATCC 25923; assay type: functional
# [7] = Half life in bovine serum; assay type: ADME, cell-free, Bos taurus; settings: cattle
# [8] = Toxicity in sheep RBC assessed as minimal hemolytic concentration after 1 hr; assay type: cell-based, Ovis aries; settings: erythrocyte
Compound,MIC (Aeromonas caviae),MIC (Klebsiella aerogenes),MIC (Klebsiella oxytoca),MIC (Pseudomonas aeruginosa),MIC (Salmonella enterica),MIC (Escherichia coli),MIC (Listeria monocytogenes),MIC (Staphylococcus aureus),MIC (Lactococcus garvieae),MIC (Micrococcus luteus),MIC (Streptococcus equinus),MIC (Enterococcus faecalis),MIC (Priestia megaterium),"hemolysis at 1 h, 100 µM [1]",HC50 at 1 h [2],Selectivity ratio [4],Selectivity ratio [6],further results
C[C@@H](O)[C@@H]1NC(=O)CN(CCCCN)NC(=O)[C@H](Cc2ccccc2)NC(=O)CN(Cc2cccc3ccccc23)NC(=O)[C@H](CO)NC(=O)CN(CCCCN)NC(=O)[C@H](CO)NC(=O)CN(CCCCN)NC1=O,> 100 µM,> 100 µM,> 100 µM,100 µM,> 100 µM,100 µM,> 100 µM,> 100 µM,> 100 µM,> 100 µM,> 100 µM,> 100 µM,> 100 µM,0%,> 100 µM,–,–,–
CCCCCCCCCCCCN1CC(=O)N[C@@H](Cc2c[nH]c3ccccc23)C(=O)NN(Cc2cccc3ccccc23)CC(=O)N[C@@H](CCCCN)C(=O)NN(CCCCN)CC(=O)N[C@@H](CC2CCCCC2)C(=O)N1,> 100 µM,> 100 µM,> 100 µM,> 100 µM,> 100 µM,> 100 µM,12.5 µM,25 µM,50 µM,12.5 µM,12.5 µM,12.5 µM,12.5 µM,62%,50 µM,0.12,2,half-life [7]: > 2 h
CC[C@H](C)[C@H](NC(=O)CN)C(=O)NCC(=O)N[C@@H](C)C(=O)N[C@H](C(=O)N[C@@H](CC(C)C)C(=O)N[C@@H](CCCCN)C(=O)N[C@H](C(=O)N[C@@H](CC(C)C)C(=O)N[C@H](C(=O)N[C@H](C(=O)NCC(=O)N[C@@H](CC(C)C)C(=O)N1CCC[C@H]1C(=O)N[C@@H](C)C(=O)N[C@@H](CC(C)C)C(=O)N[C@H](C(=O)N[C@@H](CO)C(=O)N[C@@H](Cc1c[nH]c2ccccc12)C(=O)N[C@H](C(=O)N[C@@H](CCCCN)C(=O)N[C@@H](CCCNC(=N)N)C(=O)N[C@@H](CCCCN)C(=O)N[C@@H](CCCNC(=N)N)C(=O)N[C@@H](CCC(N)=O)C(=O)N[C@@H](CCC(N)=O)C(N)=O)[C@@H](C)CC)[C@@H](C)CC)[C@@H](C)O)[C@@H](C)O)C(C)C)C(C)C [MELITTIN],> 100 µM,12.5 µM,25 µM,–,25 µM,–,–,–,6.25 µM,1.56 µM,3.12 µM,12.5 µM,6.25 µM,–,–,–,–,half-life [7]: 0.06 h
CC(C)CN1CC(=O)N[C@@H](Cc2c[nH]c3ccccc23)C(=O)NN(CCCCN)CC(=O)N[C@@H](CCCCN)C(=O)NN(CCCCN)CC(=O)N[C@@H](Cc2c[nH]c3ccccc23)C(=O)N1,> 100 µM,> 100 µM,> 100 µM,> 100 µM,> 100 µM,> 100 µM,> 100 µM,> 100 µM,> 100 µM,100 µM,> 100 µM,> 100 µM,25 µM,0%,> 100 µM,–,–,–
CC(C)C[C@@H]1NC(=O)CN(Cc2cccc3ccccc23)NC(=O)[C@H](CCCNC(=N)N)NC(=O)CN(CCCNC(=N)N)NC(=O)[C@H](CC(C)C)NC1=O,> 100 µM,> 100 µM,> 100 µM,> 100 µM,> 100 µM,> 100 µM,> 100 µM,> 100 µM,> 100 µM,25 µM,100 µM,> 100 µM,25 µM,0%,> 100 µM,–,–,–
CC(C)CN1CC(=O)N[C@@H](Cc2c[nH]c3ccccc23)C(=O)NN(CC(C)C)CC(=O)N[C@@H](CCCCN)C(=O)NN(CCCCN)CC(=O)N[C@@H](CCCCN)C(=O)N1,> 100 µM,> 100 µM,> 100 µM,> 100 µM,> 100 µM,> 100 µM,> 100 µM,> 100 µM,> 100 µM,100 µM,> 100 µM,> 100 µM,50 µM,0%,> 100 µM,–,–,–
CCCCCCCCN1CC(=O)N[C@@H](Cc2c[nH]c3ccccc23)C(=O)NN(CCCCCCCC)CC(=O)N[C@@H](CCCCN)C(=O)NN(CCCCN)CC(=O)N[C@@H](Cc2c[nH]c3ccccc23)C(=O)N1,> 100 µM,> 100 µM,> 100 µM,25 µM,> 100 µM,> 100 µM,3.12 µM,6.25 µM,6.25 µM,3.12 µM,6.25 µM,12.5 µM,6.25 µM,55%,90 µM,1,14.4,half-life [7]: > 2 h

# The next lines start with results.
MIC (Aeromonas caviae),MIC (Klebsiella aerogenes),MIC (Klebsiella oxytoca),MIC (Pseudomonas aeruginosa),MIC (Salmonella enterica),MIC (Escherichia coli),MIC (Listeria monocytogenes),MIC (Staphylococcus aureus),MIC (Lactococcus garvieae),MIC (Micrococcus luteus),MIC (Streptococcus equinus),MIC (Enterococcus faecalis),MIC (Priestia megaterium),Compound,"hemolysis at 1 h, 100 µM [1]",HC50 at 1 h [2],Selectivity ratio [4],Selectivity ratio [6],further results
> 100 µM,100 µM,> 100 µM,50 µM,100 µM,100 µM,25 µM,50 µM,100 µM,6.25 µM,12.5 µM,> 100 µM,3.12 µM,N=C(N)NCCC[C@@H]1NC(=O)CN(CCCCN)NC(=O)CN(Cc2ccc3ccccc3c2)NC(=O)[C@H](Cc2ccccc2)NC(=O)CN(Cc2ccc3ccccc3c2)NC1=O,1%,> 100 µM,2,2,Selectivity ratio [3]: 1; Selectivity ratio [5]: 1
> 100 µM,> 100 µM,> 100 µM,100 µM,100 µM,> 100 µM,100 µM,> 100 µM,> 100 µM,6.25 µM,25 µM,> 100 µM,12.5 µM,CC(C)C[C@@H]1NC(=O)CN(Cc2ccc3ccccc3c2)NC(=O)[C@H](CCCCN)NC(=O)CN(CCCCN)NC(=O)CN(Cc2ccc3ccccc3c2)NC1=O,0%,> 100 µM,–,–,–
> 100 µM,25 µM,50 µM,50 µM,50 µM,50 µM,12.5 µM,25 µM,50 µM,3.12 µM,6.25 µM,50 µM,3.12 µM,CC(C)C[C@@H]1NC(=O)CN(Cc2ccc(-c3ccccc3)cc2)NC(=O)[C@H](CCCCN)NC(=O)CN(CCCCN)NC(=O)CN(Cc2ccc(-c3ccccc3)cc2)NC1=O,30%,> 100 µM,1,4,Selectivity ratio [3]: 0.5; Selectivity ratio [5]: 2; MHC [8]: 25 µM
> 100 µM,> 100 µM,> 100 µM,> 100 µM,> 100 µM,> 100 µM,> 100 µM,> 100 µM,> 100 µM,50 µM,100 µM,> 100 µM,50 µM,CC(C)C[C@H]1NC(=O)CN(CCCCN)NC(=O)[C@H](CCCCN)NC(=O)CN(Cc2cccc3ccccc23)NC(=O)CN(CC(C)C)NC1=O,0%,> 100 µM,–,–,–
> 100 µM,25 µM,25 µM,12.5 µM,100 µM,12.5 µM,1.56 µM,1.56 µM,3.12 µM,0.78 µM,1.56 µM,6.25 µM,0.78 µM,CC(C)C[C@@H]1NC(=O)CN(Cc2ccc(-c3ccccc3)cc2)NC(=O)[C@H](CC(C)C)NC(=O)CN(Cc2ccc(-c3ccccc3)cc2)NC(=O)[C@H](CCCCN)NC(=O)CN(CCCCN)NC1=O,90%,15 µM,1,9.6,Selectivity ratio [3]: 0.12; Selectivity ratio [5]: 1.2
> 100 µM,> 100 µM,> 100 µM,> 100 µM,> 100 µM,> 100 µM,> 100 µM,> 100 µM,> 100 µM,50 µM,100 µM,> 100 µM,25 µM,CC(C)CN1CC(=O)N[C@@H](Cc2c[nH]c3ccccc23)C(=O)NN(CC(C)C)CC(=O)N[C@@H](CCCCN)C(=O)NN(CCCCN)CC(=O)N[C@@H](Cc2c[nH]c3ccccc23)C(=O)N1,0%,> 100 µM,–,–,–
